Assay results from patent US20250213533A1 (GH RESEARCH IRELAND LIMITED, priority 2022, published 2025).

Experiments:
5-HT1A receptors = target: T1, 5-HT1A receptors (Homo sapiens, UniProt P08908); experiment: Radioligand binding ([3H]8-OH-DPAT) to 5-HT1A receptors in post-mortem human hippocampus membranes
T1 construct: 5-HT1A and 5-HT2A receptors in post-mortem human brain tissue from the hippocampus and frontal cortex, respectively; tissue Edinburgh Sudden Death Brain Bank; host or cells: post-mortem human hippocampus membranes
T1 sequence (P08908 1-422): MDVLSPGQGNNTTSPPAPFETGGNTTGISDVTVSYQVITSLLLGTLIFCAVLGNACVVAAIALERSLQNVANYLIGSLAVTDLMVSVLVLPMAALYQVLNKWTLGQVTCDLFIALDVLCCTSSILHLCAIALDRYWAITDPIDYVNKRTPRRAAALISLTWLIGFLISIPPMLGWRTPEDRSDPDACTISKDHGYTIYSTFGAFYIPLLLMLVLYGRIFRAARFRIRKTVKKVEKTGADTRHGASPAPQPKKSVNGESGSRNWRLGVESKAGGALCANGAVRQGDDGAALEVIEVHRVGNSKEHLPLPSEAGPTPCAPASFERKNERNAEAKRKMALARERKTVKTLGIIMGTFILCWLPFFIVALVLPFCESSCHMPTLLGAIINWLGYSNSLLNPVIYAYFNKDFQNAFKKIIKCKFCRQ

5-HT2A receptors = target: T2, 5-HT2A receptors (Homo sapiens, UniProt P28223); experiment: Radioligand binding ([3H]MDL-100,907) to 5-HT2A receptors in post-mortem human frontal cortex membranes
T2 construct: 5-HT1A and 5-HT2A receptors in post-mortem human brain tissue from the hippocampus and frontal cortex, respectively; tissue Edinburgh Sudden Death Brain Bank; host or cells: post-mortem human frontal cortex membranes

[1] = Pharmacokinetics of 5-MeO-DMT and bufotenine after inhalation of 5-MeO-DMT in subjects; format: in vivo, human

T2 sequence (P28223 whole entry): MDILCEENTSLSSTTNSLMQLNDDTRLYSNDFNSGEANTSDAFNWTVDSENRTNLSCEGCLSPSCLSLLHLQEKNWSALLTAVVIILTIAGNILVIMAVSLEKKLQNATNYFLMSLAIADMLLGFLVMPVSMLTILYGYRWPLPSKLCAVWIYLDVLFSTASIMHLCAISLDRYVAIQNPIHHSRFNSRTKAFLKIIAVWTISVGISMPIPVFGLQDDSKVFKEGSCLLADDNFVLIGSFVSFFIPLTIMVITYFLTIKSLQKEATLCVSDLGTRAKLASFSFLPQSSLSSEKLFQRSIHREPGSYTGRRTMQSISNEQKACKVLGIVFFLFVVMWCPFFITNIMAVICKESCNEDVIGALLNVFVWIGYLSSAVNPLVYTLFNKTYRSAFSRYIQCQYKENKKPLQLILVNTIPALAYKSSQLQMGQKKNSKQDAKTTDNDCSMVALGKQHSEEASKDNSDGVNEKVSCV

Structure (SMILES)	affinity for 5-HT1A receptors (in words) (5-HT1A receptors)	affinity for 5-HT2A receptors (in words) (5-HT2A receptors)	bufotenine blood concentration above LLOQ (25 pg/ml) ([1]; metabolite after inhaled 5-MeO-DMT)	bufotenine observations when uptitration subjects were included ([1]; uptitration scheme)
CN(C)CCc1c[nH]c2ccccc12 [DMT, N,N-dimethyltryptamine]	moderate affinity	comparatively weak affinity	–	–
CN(C)CCc1c[nH]c2ccc(O)cc12 [bufotenine]	–	–	Only in few samples	Substantially similar observations
CN(C)CCc1c[nH]c2cccc(O)c12 [psilocin]	moderate affinity	moderate/strong affinity	–	–
